Publication PMC13077286, “Potentiation of the antimycobacterial activity of bedaquiline, clofazimine, and doxycycline against Mycobacterium smegmatis by several natural product-based compounds is putatively via efflux inhibition” (Open Research Africa, 2026)
Counter-ions that a name gives are not always drawn. Like-named read-outs stand apart in the source and are kept apart here.

Experiments:
[1] = system: Mycobacterium smegmatis (Msm) strain ATCC 607; experiment: Two-dimensional checkerboard assay incorporating resazurin (REMA MIC) against Msm; assay type: cell-based; details: for MIC / MIC99: compound tested singly, read-out: MIC 99 singly; for MIC 99 fold reduction of anti-TB drug BDQ: BDQ in combination with the labelled EI; for MIC 99 fold reduction of anti-TB drug DOX: DOX in combination with the labelled EI; for FICI: synergy FICI ≤ 0.5; for MIC 99 fold reduction of anti-TB drug CFZ: CFZ in combination with the labelled EI
[2] = MTT cytotoxicity assay on Vero E6 cells; assay type: cell-based, African green monkey; details: African green monkey
Procedure: (§1) To determine the cytotoxicity of the compounds, Vero E6 cells (derived from the African green monkey kidney cells) were used and the MTT assay was performed as described by [Mosmann (1983)]. The Vero E6 cells were sourced from the American Type Culture Collection (ATCC, Manassas, Virginia, USA). The cells were maintained in Eagle’s Minimum Essential Medium (EMEM) supplemented with 10% fetal bovine serum (FBS; […] Panasonic, Japan) until 80% confluency was achieved, after which they were sub-cultured for cytotoxicity evaluation. At 80% confluency, cells were washed with phosphate-buffered saline (PBS; […] Trypsin activity was neutralized by adding supplemented EMEM. Cells were stained with trypan blue (Loba Chemie, India) and counted using a hemocytometer, and the cell suspensions were adjusted with supplemented EMEM to a final density of 1 × 10 ^5 cells/mL. […] After 24 hrs, the culture medium was replaced with fresh treatment medium with dose dilutions. […] After 48 hrs incubation, the media was removed, and the cells were rinsed with PBS (Sigma-Aldrich, USA). Fresh EMEM supplemented with MTT dye (5 mg […]/mL in PBS; Solarbio, China) was added and incubated for 4 hrs. The MTT solution was then discarded, and formazan crystals were completely dissolved with 100 μL of 100% DMSO (Finar Chemicals, India). Absorbance readings were taken at 570 nm using a microplate reader (Thermo Fisher Scientific, USA). All experiments were performed with three technical replicates. Cell viability (%) was determined using the formula: Cell viability(%)=[Absorbance of treated cells/Absorbance of untreated cells]×100 […]

[3] = system: Vero E6 cells; experiment: MTT cytotoxicity assay on Vero E6 cells; assay type: cell-based, African green monkey
Procedure: as §1

[4] = Mycolicibacterium smegmatis, ATCC607, Msm
[5] = Msm, labelled EI in combination with BDQ
[6] = Msm, labelled EI in combination with CFZ
[7] = Msm, labelled EI in combination with DOX
[8] = Vero E6 cells, 48 hrs exposure, MTT, read-out: CC 50

SMILES | FIC (anti-TB drug) ([1]; Msm, in combination with BER) | MIC 99 combination (anti-TB drug) ([1]; Msm, in combination with BER) [µM] | MIC 99 combination (anti-TB drug) ([1]; Msm, in combination with LYO) [µM] | FIC (anti-TB drug) ([1]; Msm, in combination with LYO-3) | MIC 99 combination (anti-TB drug) ([1]; Msm, in combination with LYO-3) [µM] | FIC (anti-TB drug) ([1]; Msm, in combination with PIP) | MIC 99 combination (anti-TB drug) ([1]; Msm, in combination with PIP) [µM] | FIC (anti-TB drug) ([1]; Msm, in combination with RES) | MIC 99 combination (anti-TB drug) ([1]; Msm, in combination with RES) [µM] | MIC99 [1, 4] [µM] | MIC 99 fold reduction of anti-TB drug BDQ ([1]; Msm) [fold] | MIC 99 fold reduction of anti-TB drug DOX ([1]; Msm) [fold] | FIC (EI) ([1]; Msm, in combination with BDQ) | MIC 99 combination (EI) ([1]; Msm, in combination with BDQ) [µM] | MIC 99 combination (EI) ([1]; Msm, in combination with CFZ) [µM] | MIC 99 combination (EI) ([1]; Msm, in combination with DOX) [µM] | FICI [1, 5] | FICI [1, 6] | FICI [1, 7] | CC50 at 48 h [2, 8] [µM] | other results
COc1nc2ccc(Br)cc2cc1[C@@H](c1ccccc1)[C@@](O)(CCN(C)C)c1cccc2ccccc12 [BDQ, bedaquiline fumarate] | 0.102 | 0.04 | 0.09 | 0.05 | 0.04 | 1 | 0.78 | 0.5 | 0.39 | 0.78 | – | – | – | – | – | – | – | – | – | – | MIC ([1]; Msm): 0.39 µM
COc1ccc2cc3[n+](cc2c1OC)CCc1cc2c(cc1-3)OCO2 [BER, Berberine chloride] | – | – | – | – | – | – | – | – | – | 110 | 10 | 16 | 0.125 | 27.62 | 53.99 | 53.99 | 0.23 | 2 | 0.31 | – | CC50 at 48 h [2]: 362 µM; MIC [1, 4]: 221 µM
CC(C)/N=c1\cc2n(-c3ccc(Cl)cc3)c3ccccc3nc-2cc1Nc1ccc(Cl)cc1 [CFZ, clofazimine] | 1 | 0.08 | 0.08 | 1 | 0.08 | 0.12 | 0.01 | 0.25 | 0.02 | 0.08 | – | – | – | – | – | – | – | – | – | – | FIC (anti-TB drug) ([1]; Msm, in combination with LYO): 1
C[C@H]1c2cccc(O)c2C(=O)C2=C(O)[C@]3(O)C(=O)C(C(N)=O)=C(O)[C@@H](N(C)C)[C@@H]3[C@@H](O)[C@@H]21 [DOX, doxycycline hyclate] | 0.063 | 2.25 | 2.25 | 0.063 | 2.25 | 0.063 | 2.25 | 0.031 | 1.12 | 36 | – | – | – | – | – | – | – | – | – | – | FIC (anti-TB drug) ([1]; Msm, in combination with LYO): 0.063
COc1cc(C2c3c(cc(OC)c(O)c3OC)CC(CO)C2CO)cc(OC)c1O (centres unmarked) [LYO, lyoniresinol] | – | – | – | – | – | – | – | – | – | 200 | 8 | 16 | 0.125 | 25 | 200 | 25 | 0.18 | 2 | 0.19 | 318 | FIC (EI) ([1]; Msm, in combination with CFZ): 1; FIC (EI) ([1]; Msm, in combination with DOX): 0.125
COc1cc([C@H]2c3c(cc(OC)c(O)c3OC)C[C@@H](CO)[C@@H]2CO[C@@H]2O[C@H](CO)[C@@H](O)[C@H](O)[C@H]2O)cc(OC)c1O [LYO-3, (+)-lyoniresinol-3-Alpha-O-Beta-D-glucopyranoside] | – | – | – | – | – | – | – | – | – | 100 | 20 | 16 | 0.25 | 24.99 | 99.99 | 25 | 0.3 | 2 | 0.21 | 604 | viability at 48 h ([2]; Vero E6 cells, even at higher concentrations, read-out: Cell viability): > 50%; FIC (EI) ([1]; Msm, in combination with CFZ): 1; FIC (EI) ([1]; Msm, in combination with DOX): 0.25
O=C(/C=C/C=C/c1ccc2c(c1)OCO2)N1CCCCC1 [PIP, piperine] | – | – | – | – | – | – | – | – | – | 120 | – | 16 | 1 | 119.99 | 29.99 | 29.99 | 2 | 0.37 | – | 92.5 | MIC 99 fold reduction of anti-TB drug CFZ ([1]; Msm): 8 fold; FIC (EI) ([1]; Msm, in combination with CFZ): 0.25; FIC (EI) ([1]; Msm, in combination with DOX): 0.25
COC(=O)[C@H]1[C@H]2C[C@@H]3c4[nH]c5cc(OC)ccc5c4CCN3C[C@H]2C[C@@H](OC(=O)c2cc(OC)c(OC)c(OC)c2)[C@@H]1OC [RES, reserpine] | – | – | – | – | – | – | – | – | – | > 2240 | 2 | 32 | – | >2239.3 | >2239.3 | – | – | – | – | – | Cytotoxicity (in words) [3]: strong cytotoxicity at low micromolar concentrations; MIC 99 fold reduction of anti-TB drug CFZ ([1]; Msm): 4 fold; MIC [1, 4]: > 2240 µM
